{"source": "paper PMC4492579", "about": "“Potent and Selective Triazole-Based Inhibitors of the Hypoxia-Inducible Factor Prolyl-Hydroxylases with Activity in the Murine Brain” (PLoS ONE, 2015)", "origin": "cited, not measured here", "target": "T1, JMJD2A (KDM4A) (Homo sapiens, UniProt O75164)", "T1 sequence (O75164 1-1064)": "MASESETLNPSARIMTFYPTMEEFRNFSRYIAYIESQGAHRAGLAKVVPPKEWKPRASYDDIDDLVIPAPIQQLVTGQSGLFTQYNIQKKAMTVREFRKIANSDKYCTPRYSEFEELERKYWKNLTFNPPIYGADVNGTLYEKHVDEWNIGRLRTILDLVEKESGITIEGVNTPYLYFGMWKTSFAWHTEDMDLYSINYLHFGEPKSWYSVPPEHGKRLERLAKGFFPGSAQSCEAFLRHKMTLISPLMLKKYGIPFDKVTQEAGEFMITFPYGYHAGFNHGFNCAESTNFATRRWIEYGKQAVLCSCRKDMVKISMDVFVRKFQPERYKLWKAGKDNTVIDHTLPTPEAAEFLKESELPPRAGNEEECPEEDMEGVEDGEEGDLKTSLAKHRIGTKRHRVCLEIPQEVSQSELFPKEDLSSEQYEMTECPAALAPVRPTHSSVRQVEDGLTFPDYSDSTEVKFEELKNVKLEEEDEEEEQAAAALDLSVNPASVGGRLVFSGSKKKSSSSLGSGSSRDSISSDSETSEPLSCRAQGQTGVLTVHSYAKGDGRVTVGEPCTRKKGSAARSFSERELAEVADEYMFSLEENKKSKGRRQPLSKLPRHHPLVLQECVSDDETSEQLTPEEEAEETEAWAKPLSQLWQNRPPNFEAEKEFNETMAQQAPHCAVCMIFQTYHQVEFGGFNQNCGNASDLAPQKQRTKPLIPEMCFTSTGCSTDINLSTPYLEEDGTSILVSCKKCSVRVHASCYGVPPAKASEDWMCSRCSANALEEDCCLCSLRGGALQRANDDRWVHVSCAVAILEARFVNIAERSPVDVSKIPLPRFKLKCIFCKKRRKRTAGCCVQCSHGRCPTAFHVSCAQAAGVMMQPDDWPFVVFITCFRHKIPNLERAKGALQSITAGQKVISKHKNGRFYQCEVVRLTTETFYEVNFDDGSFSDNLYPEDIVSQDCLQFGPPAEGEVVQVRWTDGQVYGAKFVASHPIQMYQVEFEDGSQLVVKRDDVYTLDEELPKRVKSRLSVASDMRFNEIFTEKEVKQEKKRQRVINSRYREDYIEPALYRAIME", "set-up": "method as in PMID 26682036", "settings": "cited from earlier work"}
{"smiles": "O=C(O)CNC(=O)c1c(O)c2ccccc2n(Cc2ccccc2)c1=O", "note": "[IOX2]", "values": [{"measurement": "IC50", "result": 100, "unit": "µM"}]}
